Data on nine compounds can be found in PubChem BioAssay (NCI).

Holding throughout (assay): NCI anticancer screen, dose series, 48 h
Assay [1] has as its system MOLT-4 leukemia.
For assay [2], the system named is M14 melanoma.
Assay [3] concerns PC-3 prostate.
The test system of assay [4] is OVCAR-8 ovarian.
The test system of assay [5] is T-47D breast.
For assay [6], the system named is NCI-H522 lung.
Assay [7] relates to OVCAR-5 ovarian.
The subject of assay [8] is UO-31 renal.
In assay [9] the test system is SF-539 CNS.
The subject of assay [10] is MALME-3M melanoma.
Assay [11] relates to K-562 leukemia.
Assay [12] relates to 786-0 renal.
Assay [13] has as its system OVCAR-3 ovarian.
Assay [14] deals with A498 renal.
Assay [15] concerns MDA-N.
Assay [16] deals with SN12C renal.
Assay [17] relates to HOP-62 NSCLC.
Assay [18] deals with HOP-92 NSCLC.
Assay [19] concerns MDA-MB-231 breast.

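Each compound was tested at five concentrations against cells in 96-well plates for 48 hours. TGI marks complete inhibition of growth.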

With `COc1cc2c(c(O)c1OC)C(=O)[C@@H]1CCC(=O)N1C2c1ccccc1` (stereo partly drawn), the TGI in assay [1], in assay [2], in assay [3], in assay [4], in [5] and in [6] was greater than 100 µM each time. Also, the TGI in [7], in assay [8], in assay [9], in assay [10], in assay [11] and in assay [12] was greater than 100 µM in each case. In addition, the TGI in assay [13], in assay [14], in assay [15], in assay [16] and in assay [17] was greater than 100 µM throughout.
With `C=CCC1(Sc2ccccn2)Sc2ccc3ccccc3c2-c2c(ccc3ccccc23)S1`, the TGI in assay [18], in assay [1], in assay [2], in assay [3], in assay [4] and in assay [5] was greater than 100 µM in each case. Also, the TGI in assay [6], in assay [7], in [8], in assay [9], in [19] and in assay [10] was greater than 100 µM each time. Also, the TGI in [11], in assay [12], in assay [13], in assay [14], in assay [16] and in assay [17] was greater than 100 µM throughout.
Take `CC(C)(Oc1ccc(Cl)cc1)C(=O)N(C(=O)N1CCCCC1)c1ccccc1`: the TGI in assay [1] was found to be 84.8 µM; in [2] it was 52.1 µM; in [3] it was 20 µM; in assay [4] it was 31.4 µM; in assay [5] it was 9.68 µM; in [7] it was 36.7 µM. The TGI in assay [8] is 42 µM; in [9], 25.3 µM; in [19], 25.5 µM; in assay [10], 85.2 µM; in assay [11] it was greater than 100 µM; in assay [12] it was 27.6 µM. The TGI was 75.1 µM in assay [13], 32.8 µM in assay [14], greater than 100 µM in [15] and 47 µM in assay [16].
As for `COc1ccc2nc3c([N+](=O)[O-])ccc4c3c(c2c1)NCCN4CCN(C)C`, the TGI was 2.73 µM in [18]; 7.67 µM in assay [1]; 1.71 µM in [2]; 1.86 µM in assay [3]; greater than 10 µM in assay [4]; 9.89 µM in assay [7]. Besides, the TGI in assay [8] is 3.42 µM; in [9], 1.71 µM; in assay [19] it was 1.88 µM; in assay [10], 1.56 µM; in assay [11], greater than 10 µM; in assay [12], 1.79 µM. Besides, the TGI in assay [13] was determined as 2.4 µM; in assay [14], 3.12 µM; in assay [15], 1.99 µM; in [16], 3.28 µM; in assay [17] it was 3.44 µM.
For the compound `CC(=O)c1cc2c(s1)C(=O)c1sccc1C2=O`, the TGI in [18] came out at 0.746 µM; in assay [1], 0.292 µM; in assay [3], 0.133 µM; in assay [4], 0.227 µM; in assay [5], 0.7 µM; in assay [6], 0.0521 µM. The TGI in assay [7] is 0.158 µM; in assay [8], 0.0908 µM; in [9], 0.0348 µM; in assay [19] it was 0.151 µM; in [10], 0.0313 µM; in assay [11], 0.174 µM. The TGI in assay [12] stood at 0.421 µM; in assay [13] it was 0.0382 µM; in assay [14], 2.77 µM; in [16], 0.0294 µM; in [17], 0.0854 µM.
As for `CSc1nn(C)cc2ncnc1-2`, the TGI in assay [1], in [2], in assay [3], in [4], in [5] and in assay [7] was greater than 100 µM each time. For the same compound, the TGI in [8], in [9], in assay [19], in assay [11], in assay [12] and in assay [13] was greater than 100 µM each time. Moreover, the TGI in assay [14], in assay [15], in assay [16] and in [17] was greater than 100 µM in each case.
Consider `O=C(O)c1ccccc1CC1Cc2cc3c(cc2C1)CCC3`, for which the TGI was greater than 100 µM in assay [1]; greater than 100 µM in assay [2]; greater than 100 µM in assay [4]; 85.6 µM in assay [5]; greater than 100 µM in assay [6]; greater than 100 µM in assay [7]. Further, the TGI in assay [8], in [9], in assay [19], in [10], in assay [11] and in assay [12] was greater than 100 µM in each case. Besides, the TGI in assay [13], in assay [14], in assay [15], in [16] and in [17] was greater than 100 µM each time.
On to `Cc1ccc(OCC2OC(n3cnc4nc(Nc5ccc(Cl)c(Cl)c5)nc(Cl)c43)CC2Oc2ccc(C)cc2)cc1` (stereo not drawn), for which the TGI in assay [1], in assay [2], in assay [3], in assay [4], in assay [5] and in assay [7] was greater than 100 µM in each case. The TGI in assay [8], in assay [19], in assay [10], in assay [11], in assay [12] and in assay [13] was greater than 100 µM in each case. Further, the TGI in assay [15], in [16] and in assay [17] was greater than 100 µM each time.
As to `CNC1c2ccccc2C(=O)c2cc3c(cc21)OCCOCCOCCOCCO3` (stereo not drawn), the TGI in assay [1] was 92.2 µM; in assay [2], greater than 100 µM; in [3] it was greater than 100 µM; in assay [4], greater than 100 µM; in assay [5] it was greater than 100 µM; in assay [6], greater than 100 µM. Further, the TGI in assay [7], in [8], in assay [9], in [19], in assay [11] and in [12] was greater than 100 µM each time. The TGI in [15], in [16] and in assay [17] was greater than 100 µM in each case.
